Source: patent publication US11299472B2, “Fumarate salt of (R)-3-(1-(2,3-dichloro-4-(pyrazin-2-yl)phenyl)-2,2,2- trifluoroethyl)-1-methyl-1-(1-methylpiperidin-4-yl) urea, methods of preparation, and uses thereof” (Helsinn Healthcare SA, priority 2017, dated 2022)

Experiments:
[1] = tested on: Snord116+/− (Het) mice and wild-type (WT) littermates; test: Glucose tolerance in Prader-Willi mouse model; assay type: in vivo
From the text: The effect of HM04 fumarate salt on food intake behavior and glucose tolerance was investigated in the Snord116+/−(Het) mouse genetic model of Prader-Willi syndrome (Het mouse) compared to wild-type (WT) littermates. Since D2R agonists suppress food intake, the FDA approved D2R agonist cabergoline was used as an experimental control. Phenotypic characteristics of this PWS mouse model include hyperphagia, postnatal growth retardation, high ghrelin, and low growth hormone. Ding F., et al. SnoRNA Snord116 (Pwcr1/MBII-85) deletion causes growth deficiency and hyperphagia in mice. PloS one. 2008; 3(3):e1709. These PWS mice eat more frequently than WT littermates, particularly during the light cycle and are more motivated to work for food (more level presses) (data not shown).

[2] = Rat pharmacokinetic study, single oral HM04 fumarate salt 3, 10, 30 mg/kg (Example 10); assay type: in vivo, male Sprague Dawley rats
Description: (§1) The pharmacokinetics of HM04 in plasma after single oral administration of HM04 fumarate salt to 6-week old male Sprague Dawley rats and male Beagle dogs (1-5 years of age) was investigated. Test formulations of 0.6 mg/mL, 2 mg/mL, and 6 mg/mL HM04 fumarate salt (based on weight of the free base) were prepared in 5% glucose solution. Doses of 3, 10, and 30 mg/kg HM04 fumarate salt (based on weight of the free base) were administered by gastric gavage as a 5 mL/kg dose volume of each of the three test formulations. Four animals were in each dose group. The formulation was administered to the dogs in fasting conditions with food provided three hours post-dosing.
A comparison of the plasma concentration of HM04 (ng/mL) in rats over time is provided in FIG. 19 and a summary of the pharmacokinetic analysis is provided in Table 5, below. […] The standard deviation associated with the mean oral bioavailability was calculated according to the formula: SDq=[^2√{square root over ((my^2·SDx^2+mx^2−SDy^2))}]/my^2 where q=mean bioavailability; mx=oral dose-normalized mean AUC, and my=IV dose-normalized mean AUC.
(§2) Plasma HM04 concentrations were measured by LC-MS/MS following protein precipitation in the 96-well plate format. At the time of analysis samples were thawed out at ambient temperature. Aliquots of 25 μL of rat or dog K3EDTA plasma were spiked with 300 μL of internal standard (25 ng/mL of HM04-d8 in acetonitrile). After gentle vortex mixing for 5 minutes and centrifugation at 2010 g for 15 minutes at 4° C., an aliquot of 100 μL of the organic phase was transferred into a fresh 96-well polypropylene plate, using a P3-Evolution robotic system (Perkin Elmer). Following dilution with 100 μL of […] ammonium formate pH 3.5, an aliquot of 10 μL was injected into the LC-MS/MS system.

[3] = Dog pharmacokinetic study, single oral HM04 fumarate salt 3, 10, 30 mg/kg (Example 10); assay type: in vivo, male Beagle dogs
Description: as §1
Oral absolute bioavailability at 3 mg/kg was calculated from the ratio of individual oral AUC∞ to the individual AUC∞ values determined following intravenous administration of 3 mg/kg HM04 fumarate salt (based on weight of the free base) to the same four male Beagle dogs.
Oral absolute bioavailability at 10 mg/kg was calculated from the ratio of individual oral AUC∞ to the individual AUC∞ values determined following intravenous administration of 10 mg/kg HM04 fumarate salt (based on weight of the free base) to the same four male Beagle dogs.
as §2

[4] = biological target: T1, human GHSR1a receptor (Homo sapiens, UniProt Q92847); test: Inositol 1 phosphate (IP-1) inverse agonist assay; assay type: cell-based; conditions: IP-1 assay
T1 construct: expressed in transfected cells; host or cells: HEK293
T1 sequence (Q92847 whole entry): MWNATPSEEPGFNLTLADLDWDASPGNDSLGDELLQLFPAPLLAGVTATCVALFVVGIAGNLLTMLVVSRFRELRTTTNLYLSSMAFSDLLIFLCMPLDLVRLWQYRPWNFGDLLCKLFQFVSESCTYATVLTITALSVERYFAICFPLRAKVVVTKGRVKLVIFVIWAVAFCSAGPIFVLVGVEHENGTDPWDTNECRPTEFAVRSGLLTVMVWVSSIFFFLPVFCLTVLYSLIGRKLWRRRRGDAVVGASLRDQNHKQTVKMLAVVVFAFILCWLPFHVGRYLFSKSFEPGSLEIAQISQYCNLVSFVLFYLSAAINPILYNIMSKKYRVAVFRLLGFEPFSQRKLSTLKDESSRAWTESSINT
Description: The compounds were diluted with 100% DMSO to make 30 mM stock. On the test day, serial dilutions were prepared starting from the stock solution. For the FLIPR assay: 1) 8 μl of DMSO was added to 2 μl of compound stock solution (30 mM) to produce 10 μl of 6 mM solution; half-fold serial dilutions of the 6 mM solution were produced to generate ten doses; 2) test solutions were obtained by diluting the stock solutions 1/40 in assay buffer (DMSO concentration 2.5%). For the IP-1 assay: 1) 29 μl of DMSO was added to 1 μl of compound stock solution (30 mM) to produce 30 μl of 1 mM solution; half-fold serial dilutions of the 1 mM solution were produced to generate 10 doses; 2) test solutions were obtained by diluting the stock solutions 1/100 in assay buffer (DMSO final concentration 1%).
For the inverse agonist activity study, the same procedure described above was followed up to the day of the test. On the test day, the medium was removed by centrifuging at 700 rpm for 30 seconds and 20 μl/well of assay buffer containing the HM04 or R011 was added. The assay plates were incubated at 37° C. in the dark for 1 hour. IP1-d2 (5 μl) and AB-Cryp (5 μl) were sequentially added to all wells using multidrop Combi. The plate was incubated at room temperature for 1 hour and read on EnVision at 620 nm and 665 nm.

CN1CCC(N(C)C(=O)N[C@H](c2ccc(-c3cnccn3)c(Cl)c2Cl)C(F)(F)F)CC1 [HM04, (R)-3-(1-(2,3-dichloro-4-(pyrazin-2-yl)phenyl)-2,2,2-trifluoroethyl)-1-methyl-1-(1-methylpiperidin-4-yl)urea]
glucose tolerance ([1]; Het mice): did not show an improvement in glucose tolerance | glucose tolerance ([1]; WT mice): an effect was observed | bioavailability ([2]; male, Sprague Dawley, plasma, oral doses of 3 and 10 mg/kg): 40 to 50% | exposure to HM04 versus dose ([2]; oral 3, 10, 30 mg/kg): more than a proportional increase at 30 mg/kg | detectable pre-dose concentrations of HM04 ([3]; 3 mg/kg oral, three of the four dogs, range): 5.15 to 8.31 ng/mL | detectable pre-dose concentration ([3]; oral 10 mg/kg, Dog 2): 8.60 ng/mL | inverse agonist activity [4]: did not show a clear significant inverse agonist activity
